Results on four molecules are retold here after paper PMC11822212, “High-throughput screening identifies Aurora kinase B as a critical therapeutic target for Merkel cell carcinoma” (Nature Communications, 2025).

One test relates to MCC13 cells (VN-MCC). The test can be described thus: qHTS cell viability (CellTiter-Glo, 72 h; primary and follow-up small molecule screen). It counts as cell-based, human. In general terms: qHTS replaces the single test concentration by a dilution series.
The test system of the next test is MCC26 cells (VN-MCC). Described as above. It is filed as cell-based, human.
The next test has as its system UISO cells (VN-MCC). The description is as above. It counts as cell-based, human.
The test system of another test is WAGA cells (VP-MCC). The test is described as above. It counts as cell-based, human.
For a further test, the system named is MKL-1 cells (VP-MCC). The test is described as above. It counts as cell-based, human.
Another test concerns MKL-2 cells (VP-MCC). The test is described as above. It counts as cell-based, human.
Another test deals with HACAT cells. As to the kind of experiment: qHTS cell viability (CellTiter-Glo, 72 h; primary screen), control cell line. It counts as cell-based, human.
Another test relates to HEK293T cells. The test is described as above. It counts as cell-based, human.
A further test has as its system NIH-3T3 cells. The description is as above. It counts as cell-based, mouse.
A further test relates to CRL-7250 cells. The description is as above. It is filed as cell-based.
Test [1] deals with MCC cell lines (WAGA, MKL-1, MKL-2, MCC13, MCC26, UISO). As to the kind of experiment: qHTS cell viability, all six MCC cell lines as a group (mean AUC, MCC.avg). It counts as cell-based, human.
Test [2] has as its system VP-MCC cell lines (WAGA, MKL-1, MKL-2). The test can be described thus: qHTS cell viability, VP-MCC cell lines as a group (mean AUC, VP.MCC.avg). It is filed as cell-based, human. As to conditions: for VP-MCC_Avg_AUC: mean AUC of VP-MCC cell lines.
Test [3] concerns VN-MCC cell lines (MCC13, MCC26, UISO). The test can be described thus: qHTS cell viability, VN-MCC cell lines as a group (mean AUC, VN.MCC.avg). It counts as cell-based, human. As to conditions: for VN-MCC_Avg_AUC: mean AUC of VN-MCC cell lines.
The subject of test [4] is control cell lines (HACAT, HEK293T, CRL-7250, NIH-3T3). As to the kind of experiment: qHTS cell viability, control cell lines as a group (mean AUC, Control.avg). It counts as cell-based. As to conditions: mean AUC of control cell lines.
Test [5] deals with six MCC cell lines and four control cell lines. The test can be described thus: qHTS cell viability, all 10 cell lines screened. It counts as cell-based.
Setting [6] is: NPC library, qHTS dose-response AUC, MCC13.
Where [7] appears, read: NPC library, qHTS dose-response AUC, UISO.
The mark [8] stands for this setting: NPC library, qHTS dose-response AUC, WAGA.
Where [9] appears, read: NPC library, qHTS dose-response AUC, MKL1.
The mark [10] stands for this setting: NPC library, qHTS dose-response AUC, MKL2.
[11] abbreviates: NPC library, qHTS dose-response AUC, HACAT control.
Setting [12] is: NPC library; qHTS dose-response AUC, HEK293T control.
Setting [13] is: NPC library, qHTS dose-response AUC, NIH3T3 control.
[14] abbreviates: NPC library, qHTS dose-response AUC, CRL7250 control.
The mark [15] stands for this setting: NPC library, mean AUC of six MCC cell lines.
Where [16] appears, read: NPC library, therapeutic window: Control avg AUC minus VP-MCC avg AUC.
Where [17] appears, read: NPC library, therapeutic window: Control avg AUC minus VN-MCC avg AUC.
Setting [18] is: NPC library, therapeutic window: Control avg AUC minus MCC avg AUC.
Setting [19] is: MIPE library, 11-point DRC, sheet S2E.
Where [20] appears, read: MIPE library, 11-point DRC, control cell line, sheet S2E.
[21] abbreviates: MIPE library, mean AUC of six MCC cell lines, sheet S2E.
Setting [22] is: MIPE library, Control AUC minus VP-MCC AUC (therapeutic window), sheet S2E.
[23] abbreviates: MIPE library, Control AUC minus VN-MCC AUC (therapeutic window), sheet S2E.
[24] abbreviates: MIPE library, Control AUC minus MCC AUC (therapeutic window), sheet S2E.

As for `N=C(N)NN=C(/C=C/c1ccc([N+](=O)[O-])o1)/C=C/c1ccc([N+](=O)[O-])o1` [Nitrovin], in the test with MCC13 cells (VN-MCC) (setting [6]), the MCC13_AUC amounted to 392.271. The MCC26_AUC with MCC26 cells (VN-MCC) (NPC library; qHTS dose-response AUC, MCC26) was determined as 411.446. The molecule also yielded a UISO_AUC with UISO cells (VN-MCC) (setting [7]) of 349.388. The molecule also returned a WAGA_AUC in the test with WAGA cells (VP-MCC) (setting [8]) of 248.028. The molecule further yielded an MKL1_AUC with MKL-1 cells (VP-MCC) (setting [9]) of 291.263. For the same molecule, in the test with MKL-2 cells (VP-MCC) (setting [10]), the MKL2_AUC is given as 260.273. In addition, in the test on HACAT cells (setting [11]), the HACAT_AUC was determined as 415.924. Moreover, the HEK293T_AUC in the test on HEK293T cells (setting [12]) stood at 356.338. The NIH3T3_AUC in the test on NIH-3T3 cells (setting [13]) worked out at 385.648. For the same molecule, in the test with CRL-7250 cells (setting [14]), the CRL7250_AUC is listed as 323.737. The same molecule yielded an MCC_Avg_AUC in [1] (setting [15]) of 325.445. For the same molecule, the VP-MCC_Avg_AUC in [2] (NPC library) is 266.521. Also, the Control-VP-MCC in test [2] (setting [16]) amounted to 103.891. Further, the VN-MCC_Avg_AUC in test [3] (NPC library) was determined as 384.368. Further, the Control-VN-MCC in test [3] (setting [17]) is reported as -13.9562. This molecule also displayed a Control_Avg_AUC in test [4] (NPC library) of 370.412. For the same molecule, the Control-MCC in test [5] (setting [18]) is 44.9672.

Molecule `CCCCCCCCOc1ccccc1C(=O)Nc1ccc(C(=O)OCC[N+](C)(CC)CC)cc1` [Octylonium bromide] returned an MCC13_AUC in the test with MCC13 cells (VN-MCC) (setting [6]) of 437.863. In addition, the MCC26_AUC in the test with MCC26 cells (VN-MCC) (NPC library, qHTS dose-response AUC, MCC26) was 427.666. Besides, in the test with UISO cells (VN-MCC) (setting [7]), the UISO_AUC was 389.713. Besides, the WAGA_AUC with WAGA cells (VP-MCC) (setting [8]) is on record as 419.958. Moreover, the MKL1_AUC in the test on MKL-1 cells (VP-MCC) (setting [9]) worked out at 364.23. The molecule further showed an MKL2_AUC with MKL-2 cells (VP-MCC) (setting [10]) of 359.851. In the test with HACAT cells (setting [11]), this molecule had an HACAT_AUC of 466.719. The HEK293T_AUC is on record as 439.212 with HEK293T cells (NPC library, qHTS dose-response AUC, HEK293T control) and 439.213 in the test with HEK293T cells (setting [12]). Further, the NIH3T3_AUC in the test on NIH-3T3 cells (setting [13]) stood at 470.129. The molecule further returned a CRL7250_AUC in the test with CRL-7250 cells (setting [14]) of 483.471. Moreover, the MCC_Avg_AUC in test [1] (NPC library, mean AUC of all 6 MCC cell lines) amounted to 399.88; in test [1] (setting [15]), 399.88. Also, the Control-VP-MCC in [2] (Control AUC minus VP-MCC AUC) and in test [2] (setting [16]) was 83.5367 in each case. This molecule also came in with a VP-MCC_Avg_AUC in test [2] (NPC library) of 381.346. Further, the Control-VN-MCC in [3] (Control AUC minus VN-MCC AUC) and in test [3] (setting [17]) was 46.4688 each time. The same molecule displayed a VN-MCC_Avg_AUC in test [3] (NPC library) of 418.414. In addition, the Control_Avg_AUC in test [4] (NPC library) came out at 464.883. The Control-MCC in test [5] (setting [18]) is 65.0028.

In the case of `Cc1[nH]c(/C=C2\C(=O)Nc3ccccc32)c(C)c1CCC(=O)O` [Orantinib], the MCC13_AUC in the test with MCC13 cells (VN-MCC) (setting [19]) stood at 429.293. Further, the MCC26_AUC in the test with MCC26 cells (VN-MCC) (setting [19]) worked out at 450.485. The molecule also displayed a UISO_AUC with UISO cells (VN-MCC) (setting [19]) of 326.059. This molecule also returned a WAGA_AUC in the test on WAGA cells (VP-MCC) (setting [19]) of 255.586. The molecule further returned an MKL1_AUC in the test with MKL-1 cells (VP-MCC) (setting [19]) of 273.854. Moreover, the MKL2_AUC with MKL-2 cells (VP-MCC) (setting [19]) is recorded as 325.675. The HACAT_AUC in the test on HACAT cells (setting [20]) is 472.413. The HEK293T_AUC in the test with HEK293T cells (setting [20]) is reported as 367.406. For the same molecule, in the test with NIH-3T3 cells (setting [20]), the NIH3T3_AUC was 371.272. The molecule further had a CRL7250_AUC in the test on CRL-7250 cells (setting [20]) of 403.945. The molecule also yielded an MCC_Avg_AUC in [1] (setting [21]) of 343.492. This molecule also gave a Control-VP-MCC in [2] (setting [22]) of 118.721. Further, in test [2] (MIPE library, sheet S2E), the VP-MCC_Avg_AUC is 285.038. In test [3] (setting [23]), this molecule yielded a Control-VN-MCC of 1.813. Besides, the VN-MCC_Avg_AUC in [3] (MIPE library, sheet S2E) is 401.946. In test [4] (MIPE library, sheet S2E), the Control_Avg_AUC is 403.759. In test [5] (setting [24]), this molecule had a Control-MCC of 60.2668.

`C=C1C(=O)[C@]23[C@H](O)[C@H]1CC[C@H]2[C@@]12CO[C@]3(O)[C@@H](O)[C@@H]1C(C)(C)CC[C@@H]2O` [Oridonin]: the MCC13_AUC in the test with MCC13 cells (VN-MCC) (setting [19]) is given as 444.187. Further, the MCC26_AUC with MCC26 cells (VN-MCC) (setting [19]) worked out at 486.711. Also, the UISO_AUC with UISO cells (VN-MCC) (setting [19]) came out at 376.109. In the test with WAGA cells (VP-MCC) (setting [19]), the WAGA_AUC amounted to 351.193. In the test with MKL-1 cells (VP-MCC) (setting [19]), the MKL1_AUC amounted to 359.043. In the test with MKL-2 cells (VP-MCC) (setting [19]), this molecule registered an MKL2_AUC of 318.538. In the test with HACAT cells (setting [20]), this molecule showed an HACAT_AUC of 442.799. Further, the HEK293T_AUC with HEK293T cells (setting [20]) came to 399.439. This molecule showed an NIH3T3_AUC in the test on NIH-3T3 cells (setting [20]) of 414.657. The molecule further returned a CRL7250_AUC with CRL-7250 cells (setting [20]) of 432.105. The MCC_Avg_AUC in test [1] (setting [21]) is on record as 389.297. Moreover, in test [2] (setting [22]), the Control-VP-MCC was 79.3252. Further, in test [2] (MIPE library, sheet S2E), the VP-MCC_Avg_AUC stood at 342.925. Besides, the Control-VN-MCC in test [3] (setting [23]) is listed as -13.4189. For the same molecule, the VN-MCC_Avg_AUC in test [3] (MIPE library, sheet S2E) is recorded as 435.669. The same molecule came in with a Control_Avg_AUC in [4] (MIPE library, sheet S2E) of 422.25. The molecule further returned a Control-MCC in [5] (setting [24]) of 32.9531.
